Each structure is given as a SMILES string.

Chain of purified recombinant human BTK protein (Q06187 whole entry): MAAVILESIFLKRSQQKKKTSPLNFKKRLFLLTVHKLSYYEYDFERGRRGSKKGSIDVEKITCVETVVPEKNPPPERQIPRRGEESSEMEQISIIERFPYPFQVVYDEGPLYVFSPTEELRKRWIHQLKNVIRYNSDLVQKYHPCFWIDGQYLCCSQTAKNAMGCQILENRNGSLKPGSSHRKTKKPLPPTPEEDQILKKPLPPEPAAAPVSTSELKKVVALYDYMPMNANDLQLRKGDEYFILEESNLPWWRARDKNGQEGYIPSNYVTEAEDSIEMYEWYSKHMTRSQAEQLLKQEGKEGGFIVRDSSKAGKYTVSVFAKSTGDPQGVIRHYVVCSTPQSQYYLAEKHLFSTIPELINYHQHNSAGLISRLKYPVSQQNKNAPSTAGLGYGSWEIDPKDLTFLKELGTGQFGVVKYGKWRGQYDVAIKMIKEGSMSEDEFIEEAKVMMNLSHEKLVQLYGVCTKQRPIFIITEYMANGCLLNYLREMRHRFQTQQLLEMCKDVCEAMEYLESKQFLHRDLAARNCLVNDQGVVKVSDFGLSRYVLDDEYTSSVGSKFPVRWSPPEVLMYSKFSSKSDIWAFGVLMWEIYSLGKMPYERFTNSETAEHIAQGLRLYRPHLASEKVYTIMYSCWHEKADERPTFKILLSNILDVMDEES

One assay has as its target purified recombinant human BTK protein (Homo sapiens (Human), UniProt Q06187). Put plainly: Measurement of BTK inhibitory activity (in vitro). Particulars: FL-PEPTIDE 2 substrate 1 μM, ATP 45 μM, 40 minutes at 25° C. The class given is biochemical. The source says:
With regard to the setting of the conditions for a method for measuring the inhibitory activity of a compound against BTK kinase activity in vitro, it is described in the consumable reagent supplies price list for LabChip (registered trademark) series of PerkinElmer, Inc. that FL-PEPTIDE 2 corresponds to a substrate peptide for the measurement of BTK kinase activity. Therefore, FL-PEPTIDE 2 was used as a substrate. The purified recombinant human BTK protein used in the test was purchased from Carna Biosciences, Inc.
With regard to the measurement of the inhibitory activity of the compounds, firstly, the compounds of the present invention were diluted stepwise with dimethyl sulfoxide (DMSO). Subsequently, BTK protein, a substrate peptide (final concentration was 1 μM), magnesium chloride (final concentration was 10 mM), ATP (final concentration was 45 μM), and a DMSO solution of the compounds of the present invention (final concentration of DMSO was 5%) were added to a buffer solution for kinase reaction (20 mM HEPES (pH 7.5), 2 mM dithiotheitol, 0.01% Triton X-100), and after the solution was incubated for 40 minutes at 25° C., a kinase reaction was carried out. The reaction was terminated by adding EDTA thereto in order to obtain a final concentration of 30 mM. Finally, a substrate peptide that was not phosphorylated (S) and a phosphorylated peptide (P) were separated and detected by microchannel capillary electrophoresis using a LabChip EZ Reader II (PerkinElmer, Inc.).
Turning to `C=CC(=O)N1CCC(n2nc(C(=O)Nc3nc4ccccc4o3)c3c(N)ncnc32)CC1` [Example 69, 1-(1-acryloylpiperidin-4-yl)-4-amino-N-(benzo[d]oxazol-2-yl)-1H-pyrazolo[3,4-d]pyrimidine-3-carboxamide], the half-maximal inhibitory concentration (IC50) (as a rule, the concentration at which inhibition is half-maximal) is 162 nM.
The same measure, in the same setting: then `CCN(C)C/C=C/C(=O)N1CC[C@@H](n2nc(C(=O)Nc3nc4cc(Cl)ccc4o3)c3c(N)ncnc32)C1` [Example 33, (R,E)-4-amino-N-(5-chlorobenzo[d]oxazol-2-yl)-1-(1-(4-(ethyl(methyl)amino)but-2-enoyl)pyrrolidin-3-yl)-1H-pyrazolo[3,4-d]pyrimidine-3-carboxamide], with 0.887 nM; and `Nc1ncnc2c1c(C(=O)Nc1nc3ccccc3o1)nn2[C@@H]1CCCN(C(=O)/C=C/CN2CCN(CCNC(=O)CCCC[C@@H]3SC[C@@H]4NC(=O)N[C@@H]43)CC2)C1` [Example P-2, 4-amino-N-(benzo[d]oxazol-2-yl)-1-((R)-1-((E)-4-(4-(2-(5-((3aS,4S,6aR)-2-oxohexahydro-1H-thieno[3,4-d]imidazol-4-yl)pentanamido)ethyl)piperazin-1-yl)but-2-enoyl)piperidin-3-yl)-1H-pyrazolo[3,4-d]pyrimidine-3-carboxamide], with 43.9 nM.
The same measure, in the same setting: the value for `C=CC(=O)N1CC[C@H](n2nc(C(=O)Nc3nc4ccccc4o3)c3c(N)ncnc32)C1` [Example 65, (S)-1-(1-acryloylpyrrolidin-3-yl)-4-amino-N-(benzo[d]oxazol-2-yl)-1H-pyrazolo[3,4-d]pyrimidine-3-carboxamide] was 79 nM.
Take `CC1=CC(C)=[N+]2C1=Cc1ccc(CCC(=O)NCCN3CCN(C/C=C/C(=O)N4CCC[C@@H](n5nc(C(=O)Nc6nc7ccccc7o6)c6c(N)ncnc65)C4)CC3)n1[B-]2(F)F` [Example P-1, (R,E)-7-(3-((2-(4-(4-(3-(4-amino-3-(benzo[d]oxazol-2-ylcarbamoyl)-1H-pyrazolo[3,4-d]pyrimidin-1-yl)piperidin-1-yl)-4-oxobut-2-en-1-yl)piperazin-1-yl)ethyl)amino)-3-oxopropyl) 5,5-difluoro-1,3-dimethyl-5H-dipyrrolo[1,2-c:2′,1′-f][1,3,2]diazaborinin-4-ium-5-uide]: the 50% inhibitory concentration (IC50) turned out to be 31.4 nM.
Still for that read-out and setting: then `C=CC(=O)N1CC[C@@H](n2nc(C(=O)Nc3nc4cc(-c5cccs5)ccc4o3)c3c(N)ncnc32)C1` [Example 28, (R)-1-(1-acryloylpyrrolidin-3-yl)-4-amino-N-(5-(thiophen-2-yl)benzo[d]oxazol-2-yl)-1H-pyrazolo[3,4-d]pyrimidine-3-carboxamide], with 0.559 nM; and `C=CC(=O)N1CC(n2nc(C(=O)Nc3nc4ccccc4o3)c3c(N)ncnc32)C1` [Example 74, 1-(1-acryloylazetidin-3-yl)-4-amino-N-(benzo[d]oxazol-2-yl)-1H-pyrazolo[3,4-d]pyrimidine-3-carboxamide], with 21.4 nM.
Same read-out and setting: then `C=CC(=O)N1CC[C@@H](n2nc(C(=O)Nc3nc4cc(-c5ccc(Cl)cc5)ccc4o3)c3c(N)ncnc32)C1` [Example 31, (R)-1-(1-acryloylpyrrolidin-3-yl)-4-amino-N-(5-(4-chlorophenyl)benzo[d]oxazol-2-yl)-1H-pyrazolo[3,4-d]pyrimidine-3-carboxamide], with 1.67 nM.
The same measure, in the same setting: then `C=CC(=O)N1CC[C@@H](n2nc(C(=O)Nc3nc4cc(C(F)(F)F)ccc4o3)c3c(N)ncnc32)C1` [Example 43, (R)-1-(1-acryloylpyrrolidin-3-yl)-4-amino-N-(5-(trifluoromethyl)benzo[d]oxazol-2-yl)-1H-pyrazolo[3,4-d]pyrimidine-3-carboxamide], with 0.546 nM; and `C=CC(=O)N1CCC[C@@H](n2nc(C(=O)Nc3nc4cc(-c5cccs5)ccc4o3)c3c(N)ncnc32)C1` [Example 3, (R)-1-(1-acryloylpiperidin-3-yl)-4-amino-N-(5-(thiophen-2-yl)benzo[d]oxazol-2-yl)-1H-pyrazolo[3,4-d]pyrimidine-3-carboxamide], with 0.443 nM.
Take `C=CC(=O)N1CCC[C@@H](n2nc(C(=O)Nc3nc4cccc(Cl)c4o3)c3c(N)ncnc32)C1` [Example 64, (R)-1-(1-acryloylpiperidin-3-yl)-4-amino-N-(7-chlorobenzo[d]oxazol-2-yl)-1H-pyrazolo[3,4-d]pyrimidine-3-carboxamide]: the IC50 is 8.09 nM.
The same measure, in the same setting: then `C=CC(=O)N1CC[C@@H](n2cc(C(=O)Nc3nc4cc(-c5ccccc5)ccc4o3)c3c(N)ncnc32)C1` [Example 55, (R)-7-(1-acryloylpyrrolidin-3-yl)-4-amino-N-(5-phenylbenzo[d]oxazol-2-yl)-7H-pyrrolo[2,3-d]pyrimidine-5-carboxamide], with 0.799 nM; and `CCN(CC)C/C=C/C(=O)N1CC[C@@H](n2cc(C(=O)Nc3nc4cc(-c5ccccc5)ccc4o3)c3c(N)ncnc32)C1` [Example 58, (R,E)-4-amino-N-(5-phenylbenzo[d]oxazol-2-yl)-7-(1-(4-(diethylamino)but-2-enoyl)pyrrolidin-3-yl) 7H-pyrrolo[2,3-d]pyrimidine-5-carboxamide], with 1.84 nM.

In the next assay the test system is A431 cells / TMD8 cells. Put plainly: Proliferation inhibitory activity against cell lines expressing BTK and EGFR (in vitro), comparison of selectivity. The class given is cell-based, human. Particulars: ratio from GI50 (nM), 3 days culture, CELLTITER GLO. An excerpt:
TMD8 cells, which are of a diffuse large B-cell lymphoma cell line expressing BTK, were suspended in RPMI1640 medium (manufactured by Life Technologies Corp.) containing 10% fetal bovine serum. A431 cells, which are of an EGFR-overexpressing, highly activated human epidermoid carcinoma cell line, were suspended in DMEM, high glucose medium (manufactured by Life Technologies Corp.) containing 10% fetal bovine serum. The cell suspensions were inoculated into each well of 384-well flat-bottomed microplates, and the cells were cultured for 1 day at 37° C. in an incubator containing 5% carbon dioxide gas. […] A DMSO solution of the test compounds was diluted with the medium used in the suspension of the each cells, and this was added to each of the wells of the cell culture plates such that the final concentration of DMSO would be 0.2%. The cells were further cultured for 3 days at 37° C. in an incubator containing 5% carbon dioxide gas. […] Proliferation inhibition ratio (%)=(C−T)/(C−C0)×100
T: Luminescence intensity of a well in which the test compound was added
C: Luminescence intensity of a well in which the test compound was not added
C0: Luminescence intensity of a well measured before the addition of the test compound
When a comparison is made between the cell proliferation inhibitory activity against A431 cells that depends on the EGFR proliferation signaling and the cell proliferation inhibitory activity against TMD8 cells that depends on the BTK proliferation signaling, the influence of the respective kinases at a cellular level is able to be evaluated. That is, when the “A431 cell proliferation inhibition ratio/TMD8 cell proliferation inhibition ratio” is calculated, it is contemplated that as the value of the ratio is larger, the selectivity to BTK over EGFR in the cells is higher.
For orientation: Cellular ATP, detected with luciferase, serves as a proxy for viable cell number.
For the molecule `C/C=C/C(=O)N1CCC[C@@H](n2nc(C(=O)Nc3nc4ccccc4o3)c3c(N)ncnc32)C1` [Example 14, (R,E)-4-amino-N-(benzo[d]oxazol-2-yl)-1-(1-(but-2-enoyl)piperidin-3-yl)-1H-pyrazolo[3,4-d]pyrimidine-3-carboxamide], the “A431 cell proliferation inhibition ratio/TMD8 cell proliferation inhibitio ratio” value is listed as over 1400.6.
On to `C=CC(=O)N1CC[C@@H](n2nc(C(=O)Nc3nc4cc(-c5ccccc5)ccc4o3)c3c(N)ncnc32)C1` [Example 41, (R)-1-(1-acryloylpyrrolidin-3-yl)-4-amino-N-(5-phenylbenzo[d]oxazol-2-yl)-1H-pyrazolo[3,4-d]pyrimidine-3-carboxamide], for which the “A431 cell proliferation inhibition ratio/TMD8 cell proliferation inhibitio ratio” value is 1667.7.
Same read-out and setting: the value for `C=CC(=O)N1CC[C@@H](n2nc(C(=O)Nc3nc4cc(-c5cccs5)ccc4o3)c3c(N)ncnc32)C1` [Example 28, (R)-1-(1-acryloylpyrrolidin-3-yl)-4-amino-N-(5-(thiophen-2-yl)benzo[d]oxazol-2-yl)-1H-pyrazolo[3,4-d]pyrimidine-3-carboxamide] was 2040.3; that for `C=CC(=O)N1CC[C@@H](n2nc(C(=O)Nc3nc4ccccc4o3)c3c(N)ncnc32)C1` [Example 27, (R)-1-(1-acryloylpyrrolidin-3-yl)-4-amino-N-(benzo[d]oxazol-2-yl)-1H-pyrazolo[3,4-d]pyrimidine-3-carboxamide] was 4155.9; that for `C=CC(=O)N1CCC[C@@H](n2nc(C(=O)Nc3nc4cc(OC)ccc4o3)c3c(N)ncnc32)C1` [Example 7, (R)-1-(1-acryloylpiperidin-3-yl)-4-amino-N-(5-methoxybenzo[d]oxazol-2-yl)-1H-pyrazolo[3,4-d]pyrimidine-3-carboxamide] was 5440.9.
Still for that read-out and setting: then `C=CC(=O)N1CCC(n2nc(C(=O)Nc3nc4cc(Cl)ccc4o3)c3c(N)ncnc32)C1` (stereo not shown) [Example 84, 1-(1-acryloylpyrrolidin-3-yl)-4-amino-N-(5-chlorobenzo[d]oxazol-2-yl)-1H-pyrazolo[3,4-d]pyrimidine-3-carboxamide], with over 7132.7; and `CN(C)C/C=C/C(=O)N1CCC[C@@H](n2nc(C(=O)Nc3nc4cc(-c5cccs5)ccc4o3)c3c(N)ncnc32)C1` [Example 21, (R,E)-4-amino-N-(5-(thiophen-2-yl)benzo[d]oxazol-2-yl)-1-(1-(4-(dimethylamino)but-2-enoyl)piperidin-3-yl)-1H-pyrazolo[3,4-d]pyrimidine-3-carboxamide], with 4909.1; and `C=CC(=O)N1CC[C@@H](n2nc(C(=O)Nc3nc4cc(OC)ccc4o3)c3c(N)ncnc32)C1` [Example 38, (R)-1-(1-acryloylpyrrolidin-3-yl)-4-amino-N-(5-methoxybenzo[d]oxazol-2-yl)-1H-pyrazolo[3,4-d]pyrimidine-3-carboxamide], with 2868.1.
On the same count and under the same terms, then `C=CC(=O)N1CCC[C@@H](n2nc(C(=O)Nc3nc4cc(CCOC)ccc4o3)c3c(N)ncnc32)C1` [Example 8, (R)-1-(1-acryloylpiperidin-3-yl)-4-amino-N-(5-(2-methoxyethyl)benzo[d]oxazol-2-yl)-1H-pyrazolo[3,4-d]pyrimidine-3-carboxamide], with 25303.8.
